Measurements reported in US20240041042A1, “1-(PYRIDYL)-5-AZINYLPYRAZOLE DERIVATIVES, AND THEIR USE FOR CONTROL OF UNDESIRED PLANT GROWTH” (Bayer Aktiengesellschaft, priority 2020, published 2024).
Where two headings read alike, the source gives them in different places.

Assays:
Assay type in all cases: in vivo
Setaria viridis (SETVI) = assay: Pre-emergence herbicidal action against SETVI
Summary of the method: (§1)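 Pre-emergence soil-surface spray of compound, formulated as wettable powder or emulsion concentrate, in aqueous suspension or emulsion with 0.5% additive (600 l/ha; rate 320 g/ha or less). Activity rated visually after roughly 3 weeks in the greenhouse as a percentage of untreated controls, 0% meaning no difference.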

Lolium rigidum (LOLRI) = assay: Post-emergence herbicidal action against LOLRI
Summary of the method: (§2)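 Greenhouse plants sprayed at the one-leaf stage, 2–3 weeks after sowing, with WP or EC formulations plus 0.5% additive at 600 l/ha water. Activity rated visually after about 3 weeks versus untreated controls (100% = dead, 0% = like control), at 320 g/ha or lower.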

Zea mays (ZEAMX) = details: for Post-emergence action against ZEAMX in %: crop plant compatibility, effect vs untreated controls; for Post-emergence action against ZEAMX in % (crop plant compatibility): 20 g/ha, effect in comparison to untreated controls
Summary of the method: (§3)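 Effects were read visually as % versus untreated controls (0% = no effect, 100% = death) about 3 weeks post-treatment. Application was a post-emergence spray at the one-leaf stage of WP/EC formulations with 0.5% additive at 600 l/ha. Different dosages are denoted a, b and c.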

Oryza sativa (ORYSA) = details: crop plant compatibility
Summary of the method: as §3

[1] = system: Digitaria sanguinalis (DIGSA); assay: Pre-emergence herbicidal action against DIGSA
Summary of the method: as §1

[2] = system: Digitaria sanguinalis (DIGSA); assay: Post-emergence herbicidal action against DIGSA; details: visual rating about 3 weeks after treatment
Summary of the method: as §2

[3] = system: Amaranthus retroflexus (AMARE); assay: Pre-emergence herbicidal action against AMARE; details: visual scoring after about 3 weeks vs untreated controls
Summary of the method: as §1

[4] = system: Alopecurus myosuroides (ALOMY); assay: Pre-emergence herbicidal action against ALOMY; details: scored visually after about 3 weeks, 100% = plants have died
Summary of the method: as §1

[5] = system: Triticum aestivum (TRZAS); details: crop plant compatibility, 20 g/ha, effect vs untreated controls
Summary of the method: as §3

[6] = 80 g/ha, effect in comparison to untreated controls
[7] = 80 g/ha, visual scoring after about 3 weeks vs untreated controls
[8] = 20 g/ha, effect vs untreated controls

Row | Compound | Post-emergence action against ZEAMX in % (Zea mays (ZEAMX); 80 g/ha) [%] | Post-emergence action against ORYSA in % (Oryza sativa (ORYSA); [6]) [%] | Post-emergence action against ZEAMX in % (Zea mays (ZEAMX); 320 g/ha) [%] | Post-emergence action against TRZAS in % [5] [%] | Post-emergence action against ZEAMX in % (crop plant compatibility) (Zea mays (ZEAMX)) [%] | Post-emergence action against ORYSA in % (Oryza sativa (ORYSA); [8]) [%] | Pre-emergence action against SETVI in % (Setaria viridis (SETVI); dosage 320 g/ha) [%] | Post-emergence action against LOLRI in % (Lolium rigidum (LOLRI); dosage 320 g/ha) [%] | Pre-emergence action against DIGSA in % [1, 7] [%] | Pre-emergence action against DIGSA in % ([1]; dosage 320 g/ha) [%] | Post-emergence action against DIGSA in % ([2]; 80 g/ha) [%] | Post-emergence action against DIGSA in % ([2]; 320 g/ha) [%] | Pre-emergence action against AMARE in % ([3]; 80 g/ha) [%] | Pre-emergence action against AMARE in % ([3]; 320 g/ha) [%] | Pre-emergence action against ALOMY ([4]; 80 g/ha) [%] | Pre-emergence action against ALOMY ([4]; 320 g/ha) [%] | Pre-emergence action against SETVI in % (Setaria viridis (SETVI); dosage 80 g/ha) [%] | Post-emergence action against LOLRI in % (Lolium rigidum (LOLRI); dosage 80 g/ha) [%]
1 | O=C(O)COc1nn(-c2ncccc2F)c(-c2ccc(F)nc2)c1Br [Example I-17] |  | 10 |  | 10 | 10 | 0 | 100 | 80 | 100 | 100 | 90 | 90 | 100 | 100 | 100 | 100 | 100 | 
2 | COC(=O)COc1nn(-c2ncccc2F)c(-c2cncc(F)c2)c1Br [Example I-16] | 20 | 10 |  | 20 | 10 | 0 | 100 |  | 100 | 100 |  |  | 100 | 100 | 100 | 100 | 90 | 

Continued, in another order:

Row | Post-emergence action against ZEAMX in % (Zea mays (ZEAMX); 80 g/ha) [%] | Post-emergence action against ORYSA in % (Oryza sativa (ORYSA); [6]) [%] | Post-emergence action against ZEAMX in % (Zea mays (ZEAMX); 320 g/ha) [%] | Post-emergence action against TRZAS in % [5] [%] | Post-emergence action against ZEAMX in % (crop plant compatibility) (Zea mays (ZEAMX)) [%] | Post-emergence action against ORYSA in % (Oryza sativa (ORYSA); [8]) [%] | Compound | Pre-emergence action against SETVI in % (Setaria viridis (SETVI); dosage 320 g/ha) [%] | Post-emergence action against LOLRI in % (Lolium rigidum (LOLRI); dosage 320 g/ha) [%] | Pre-emergence action against DIGSA in % [1, 7] [%] | Pre-emergence action against DIGSA in % ([1]; dosage 320 g/ha) [%] | Post-emergence action against DIGSA in % ([2]; 80 g/ha) [%] | Post-emergence action against DIGSA in % ([2]; 320 g/ha) [%] | Pre-emergence action against AMARE in % ([3]; 80 g/ha) [%] | Pre-emergence action against AMARE in % ([3]; 320 g/ha) [%] | Pre-emergence action against ALOMY ([4]; 80 g/ha) [%] | Pre-emergence action against ALOMY ([4]; 320 g/ha) [%] | Pre-emergence action against SETVI in % (Setaria viridis (SETVI); dosage 80 g/ha) [%] | Post-emergence action against LOLRI in % (Lolium rigidum (LOLRI); dosage 80 g/ha) [%]
3 | 0 | 0 |  |  |  |  | COC(=O)COc1nn(-c2ncccc2F)c(-c2ccc(F)nc2)c1Br [Example I-07] | 100 | 90 | 100 | 100 | 90 | 90 | 90 | 90 | 90 | 100 |  | 
4 | 0 |  | 20 |  |  |  | C[C@@H](Oc1nn(-c2ncccc2F)c(-c2ccc(F)nc2)c1Br)C(=O)O [Example I-10] | 100 | 90 | 100 | 100 | 90 | 90 | 100 | 100 | 100 | 100 | 100 | 90
5 |  | 10 |  |  |  |  | COCCOC(=O)COc1nn(-c2ncccc2C)c(-c2cncc(F)c2)c1Br [Example I-212] | 100 | 80 | 100 | 100 | 90 | 90 | 90 | 100 | 100 | 100 | 100 | 
